Reference: patent US9360486B2, “Allergen fragments” (Biomay AG, priority 2007, dated 2016)

Tested on: Amb a 1-specific T cell lines (TCL)
Test: T cell epitope mapping of Amb a 1.3: proliferation (3H-thymidine uptake) of TCL stimulated with synthetic peptides
Format: cell-based, human
Conditions: for No. positive patients SI > 3 / No. positive patients SI > 5 / % (positive patients SI > 3) / % (positive patients SI > 5): TCL from 48 ragweed pollen-allergic patients, peptide 5 μg/ml; for No. positive patients SI > 3 / No. positive patients SI > 5: 3H-thymidine uptake after 48 hrs; for No. positive patients SI > 3 / % (positive patients SI > 3): stimulation index > 3; for No. positive patients SI > 5 / % (positive patients SI > 5): stimulation index > 5; for T cell activating region recognized by % of patients: classes of prevalence referring to SI>5, 48 TCL
Source text: The T cell response to Amb a 1 was characterized in detail using the established in vitro culture system (Jahn-Schmid et al., J. Immunol. 169: 6005-11, 2002; Jahn-Schmid et al., J. Allergy Clin. Immunol., 115: 399-404, 2005). In total, 85 clinically well-defined patients (75 from Vienna/10 from Milano) with typical case history, positive skin prick test and CAP/RAST tests for ragweed extract were included.
Peripheral blood mononuclear cells (PBMC) were isolated from heparinized blood of allergic patients by Ficoll density gradient centrifugation. To generate allergen-specific T cell lines (TCL) and T cell clones (TCC), 1.5×10^6 PBMC were stimulated with optimal doses of ragweed or mugwort extract (4 μg/ml) or rAmb a 1.3 (10 μg/ml) in 24-well flat-bottomed culture plates (Costar, USA). After 5 days human rIL-2 (10 U/ml, Boehringer, Mannheim, Germany) were added and cultures were continued for additional 7 days. Then, T cell blasts were isolated by density centrifugation. The majority of T cell blasts was further expanded with IL-2 and irradiated PBMC. A small number of T cell blasts were used to establish monoclonal T cell cultures by limiting dilution: 0.3 T cells/well were seeded into 96 well round bottom plates (Nunclone) in the presence of 2×10^5 irradiated (60 Gy) PBMC, 0.25% v/v PHA (Gibco, USA) and rIL-2 (4 U/well) in the medium mentioned above. After 14-21 days, growing microcultures were expanded at weekly intervals with irradiated PBMC and rIL-2. The specificity of TCC was assessed in proliferation assays using irradiated allogeneic or HLA-matched PBMC or irradiated EBV-transformed allogeneic B-cells and 5 μg/ml Amb a 1.3. After 48 hours, cellular uptake of tritiated (^3H)-thymidine was performed to measure proliferation in counts per minute (cpm). When the stimulation index (SI; ratio between cpm obtained in cultures containing TCC plus autologous APC plus antigen, and cpm obtained in cultures containing TCC and APC alone) was >10, responses were considered as positive. Allergen-specific TCC were expanded by alternating turns of stimulation with autologous irradiated APC and allergen or with allogeneic feeder cells and rIL-2.
Amb a 1-specific TCL and TCC were used to identify T cell epitopes of Amb a 1.3. T cell cultures were stimulated with a panel of 121 synthetic 12-mer peptides and one 13-mer representing the C-terminal peptide of Amb a 1.3 (Pepset, Biotrend, Germany). Peptides had been synthesized according to the Amb a 1.3 amino acid sequence and overlapped for 9 amino acid residues with the neighbouring peptides (Table 1). Peptides were used at a concentration of 5 μg/ml for stimulation and proliferation of T cell cultures was determined after 48 hrs by ^3H-thymidine-uptake. Because of the frequently observed high background caused by auto-reactivity in TCL, the mean of the cpm observed with the ten least stimulating peptides (none of the peptides was toxic) was used as negative control in calculations of SI. Throughout this manuscript, a peptide comprised one T cell epitope when the stimulation index was at least 3.0.
T cell epitope mapping of Amb a 1.3 was performed evaluating 48 TCL from different patients ([…]), which had been initiated with ragweed extract (containing the natural allergen) or rAmb a 1.3 (Table 2). TCL induced with either ragweed extract or rAmb a 1.3 from the same individual recognized similar T cell epitopes (Table 2; FIG. 7). […] Therefore, their data were combined for further analysis (Table 3). Typical for many inhalant allergens, multiple T cell activating regions were detected in Amb a 1.3. The number of peptides recognized by T cells from a single individual ranged from 2 to maximum 60 peptides with a mean of 17.8 peptides (median=16/for SI>3; resp. 0-36/11.9/12 for SI>5) (see Table 3). In total, 26 relevant (i.e. recognized by ≧10% of patients studied) T cell activating regions comprising 12-18 aa were identified. […]

| Sequence | reactivity with T cells isolated from allergic individuals | No. positive patients SI > 3 | No. positive patients SI > 5 | % (positive patients SI > 3) | % (positive patients SI > 5) | T cell activating region recognized by % of patients | T cell reactivity with samples from individuals suffering from ragweed pollen allergy |
| --- | --- | --- | --- | --- | --- | --- | --- |
| LRFAAAQNRPLW (Amb a 1 fragment) [Peptide 28] | reactivity with T cells | 15 | 11 | 31.3% | 22.9% | – | – |
| FQVVNNNYDRWG (Amb a 1 fragment) [Peptide 87] | reactivity with T cells | 5 | 2 | 10.4% | 4.2% | – | – |
| PTILCQGNRFLA (Amb a 1 fragment) [Peptide 94] | reactivity with T cells | 11 | 9 | 22.9% | 18.8% | recognized by 18.8% | – |
| GAAESMAWNWRS (Amb a 1 fragment) [Peptide 103] | – | 2 | 1 | 4.2% | 2.1% | – | – |
| PDDQIKKNVLAR (Amb a 1 fragment) [Peptide 98] | reactivity with T cells | 13 | 8 | 27.1% | 16.7% | – | – |
| GDVYTVTSNLDD (Amb a 1 fragment) [Peptide 21] | – | 2 | 1 | 4.2% | 2.1% | – | – |
| GRGVKVEIINGG (Amb a 1 fragment) [Peptide 40] | – | 3 | 4 | 6.3% | 8.3% | – | – |
| CKFTQQSKAILL (Amb a 1 fragment) [Peptide 71] | – | 4 | 2 | 8.3% | 4.2% | – | – |
| IDHCSLSKSFDG (Amb a 1 fragment) [Peptide 62] | – | 3 | 2 | 6.3% | 4.2% | – | – |
| FGFFQVVNNNYD (Amb a 1 fragment) [Peptide 86] | reactivity with T cells | 12 | 10 | 25.0% | 20.8% | recognized by 20.6% | high T cell reactivity |
| NMFTDNVDQRMP (Amb a 1 fragment) [Peptide 81] | reactivity with T cells | 7 | 6 | 14.6% | 12.5% | – | – |
| ESMAWNWRSDKD (Amb a 1 fragment) [Peptide 104] | – | 2 | 1 | 4.2% | 2.1% | – | – |
| AWNWRSDKDLLE (Amb a 1 fragment) [Peptide 105] | – | 4 | 3 | 8.3% | 6.3% | – | – |
| DKDLLENGAIFVTSG (Amb a 1 fragment) [Peptide 107-108] | reactivity with T cells | – | – | – | – | recognized by 56.3% | – |
| RWGTYAIGGSSA (Amb a 1 fragment) [Peptide 90] | reactivity with T cells | 5 | 3 | 10.4% | 6.3% | – | – |
| GVGEILPSVNET (Amb a 1 fragment) [Peptide 2] | – | 2 | 1 | 4.2% | 2.1% | – | – |
| VLTPVQSAGMIP (Amb a 1 fragment) [Peptide 113] | – | 4 | 1 | 8.3% | 2.1% | – | – |
| SDGDTINVAGSS (Amb a 1 fragment) [Peptide 57] | – | 0 | 0 | 0.0% | 0.0% | – | – |
| DTHVQDKGMLAT (Amb a 1 fragment) [Peptide 76] | – | 4 | 1 | 8.3% | 2.1% | – | – |
| TSNLDDDVANPK (Amb a 1 fragment) [Peptide 23] | – | 2 | 1 | 4.2% | 2.1% | – | – |
| MNVKNIIIHNIN (Amb a 1 fragment) [Peptide 45] | – | 2 | 0 | 4.2% | 0.0% | – | – |
| RQASDGDTINVA (Amb a 1 fragment) [Peptide 56] | – | 1 | 1 | 2.1% | 2.1% | – | – |
| KGMLATVAFNMF (Amb a 1 fragment) [Peptide 78] | reactivity with T cells | 11 | 6 | 22.9% | 12.5% | recognized by 12.5% | – |
| IIFKNDMVINLN (Amb a 1 fragment) [Peptide 32] | – | 2 | 1 | 4.2% | 2.1% | – | – |
| HVTISNCKFTQQ (Amb a 1 fragment) [Peptide 69] | reactivity with T cells | 8 | 4 | 16.7% | 8.3% | – | – |
| NINIHDVKVLPG (Amb a 1 fragment) [Peptide 48] | reactivity with T cells | 10 | 9 | 20.8% | 18.8% | – | – |
| SDKTIDGRGVKV (Amb a 1 fragment) [Peptide 38] | reactivity with T cells | 13 | 11 | 27.1% | 22.9% | – | – |
| QIKKNVLARTGT (Amb a 1 fragment) [Peptide 99] | reactivity with T cells | 8 | 4 | 16.7% | 8.3% | – | – |
| QNRPLWIIFKND (Amb a 1 fragment) [Peptide 30] | reactivity with T cells | 11 | 9 | 22.9% | 18.8% | – | – |
